From patent publication US8952024B2, “Herbicidal pyrimidone derivatives” (E I du Pont de Nemours and Company, priority 2009, dated 2015)

Assays:
Type in all cases: in vivo
[1] = tested on: barnyardgrass (Echinochloa crus-galli); test: Test B flooded paddy test; conditions: for Plant response rating, Barnyardgrass: Flood (flooded paddy test), 13 to 15 days
Summary of the method: (§1)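 Ratings are visual, 0–100 (100 = complete control), taken versus untreated controls 13 to 15 days after treatment in the greenhouse. Compound went straight into paddy water held 3 cm above soil, applied to 2-leaf-stage plants of four species.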

[2] = tested on: ducksalad (Heteranthera limosa); test: Test B flooded paddy test; conditions: for Plant response rating, Ducksalad: Flood (flooded paddy test), 13 to 15 days
Summary of the method: as §1

[3] = tested on: rice (Oryza sativa); test: Test B flooded paddy test; conditions: for Plant response rating, Rice: Flood (flooded paddy test), 13 to 15 days
Summary of the method: as §1

[4] = tested on: umbrella sedge (Cyperus difformis); test: Test B flooded paddy test; conditions: for Plant response rating, Sedge, Umbrella: Flood (flooded paddy test), 13 to 15 days
Summary of the method: as §1

[5] = tested on: barnyardgrass (Echinochloa crus-galli); test: Test A pre-/postemergence plant response
Summary of the method: (§2)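 Visually rated 0–100 injury (100 = complete control) versus untreated plants, ~10 days in greenhouse. Application pre- (soil spray, loam/sand) and postemergence (2–10 cm, 1–2 leaf stage), same timepoint.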

[6] = tested on: large crabgrass (Digitaria sanguinalis); test: Test A pre-/postemergence plant response; conditions: Postemergence
Summary of the method: as §2

[7] = tested on: pigweed (Amaranthus retroflexus); test: Test A pre-/postemergence plant response; conditions: Postemergence
Summary of the method: as §2

[8] = tested on: velvetleaf (Abutilon theophrasti); test: Test A pre-/postemergence plant response
Summary of the method: as §2

[9] = tested on: wheat (Triticum aestivum); test: Test A pre-/postemergence plant response
Summary of the method: as §2

[10] = tested on: corn (Zea mays); test: Test A pre-/postemergence plant response
Summary of the method: as §2

[11] = tested on: morningglory (Ipomoea spp.); test: Test A pre-/postemergence plant response
Summary of the method: as §2

[12] = tested on: giant foxtail (Setaria faberii); test: Test A pre-/postemergence plant response
Summary of the method: as §2

[13] = 250 g ai/ha, flooded paddy test, visual rating on 0 to 100 scale (0 no effect, 100 complete control) after 13 to 15 days
[14] = 62 g ai/ha, scale of 0 to 100 where 0 is no effect and 100 is complete control
[15] = 125 g ai/ha, scale 0 to 100, 0 is no effect, 100 is complete control
[16] = Flood, 31 g ai/ha, scale 0 to 100 (0 no effect, 100 complete control)
[17] = Postemergence, 125 g ai/ha, 0 to 100 scale where 0 is no effect and 100 is complete control
[18] = Postemergence, 500 g ai/ha, 0 to 100 scale, 0 = no effect, 100 = complete control, approx. ten days
[19] = Preemergence, 125 g ai/ha, 0 to 100 scale, 0 = no effect, 100 = complete control
[20] = Preemergence, 500 g ai/ha, visual injury, 0 to 100 scale (0 no effect, 100 complete control), approx. ten days
[21] = 125 g ai/ha, 0 to 100 scale where 0 is no effect and 100 is complete control
[22] = 500 g ai/ha, 0 to 100 scale, 0 = no effect, 100 = complete control, approx. ten days

O=C1CCCC(OC(=O)C2CC2)=C1C(=O)c1cnc(-c2ccccc2)n(-c2ccccc2)c1=O [Compound 88]
20: Plant response rating, Barnyardgrass [1, 14]
90: Plant response rating, Barnyardgrass [5, 18] | Plant response rating, Barnyardgrass [5, 20] | Plant response rating, Crabgrass, Large [6, 21] | Plant response rating, Crabgrass, Large [6, 22] | Plant response rating, Morningglory [11, 17] | Plant response rating, Foxtail, Giant [12, 18]
100: Plant response rating, Pigweed [7, 21] | Plant response rating, Pigweed [7, 22] | Plant response rating, Velvetleaf [8, 17] | Plant response rating, Velvetleaf [8, 18] | Plant response rating, Velvetleaf [8, 20] | Plant response rating, Morningglory [11, 18] | Plant response rating, Foxtail, Giant [12, 20]
0: Barnyardgrass plant response rating [1, 16] | Plant response rating, Rice [3, 14] | Rice plant response rating [3, 16] | Sedge, Umbrella plant response rating [4, 16] | Plant response rating, Wheat [9, 17] | Plant response rating, Wheat [9, 18] | Plant response rating, Wheat [9, 19] | Plant response rating, Corn [10, 17] | Plant response rating, Corn [10, 19] | Plant response rating, Corn [10, 20]
50: Plant response rating, Flood, Rice [3, 13] | Plant response rating, Morningglory [11, 19]
80: Plant response rating, Flood, Ducksalad [2, 13] | Plant response rating, Barnyardgrass [5, 17] | Plant response rating, Velvetleaf [8, 19]
70: Plant response rating, Morningglory [11, 20]
40: Plant response rating, Barnyardgrass [1, 15] | Plant response rating, Ducksalad [2, 14] | Plant response rating, Rice [3, 15] | Plant response rating, Sedge, Umbrella [4, 15]
30: Ducksalad plant response rating [2, 16] | Plant response rating, Sedge, Umbrella [4, 14]
75: Plant response rating, Ducksalad [2, 15]
65: Plant response rating, Flood, Sedge, Umbrella [4, 13]
60: Plant response rating, Flood, Barnyardgrass [1, 13] | Plant response rating, Corn [10, 18] | Plant response rating, Foxtail, Giant [12, 17]
10: Plant response rating, Barnyardgrass [5, 19] | Plant response rating, Wheat [9, 20]
